Active and inactive are the calls of the source. The calls are words filed in the database; no cut-off is given here.
Key:
Persicaria nodosa [1] = experiment: Pre-emergence herbicidal activity against Persicaria nodosa assessed as growth inhibition at 25 g a.i/10 a; format: functional, organism-based
[2] = (§1) Pre-emergence phytotoxicity against Glycine max (soybean) assessed as mortality at 6.3 g a.i/10 a; format: organism-based; conditions: in vivo, 6.3 g a.i/10 a
Gossypium hirsutum [3] = experiment: Post-emergence phytotoxicity against Gossypium hirsutum (cotton) assessed as mortality at 1.6 g a.i/10 a applied 11 days after germination as foliar spray; format: organism-based; conditions: in vivo, other, 264 h
Digitaria sanguinalis [4] = experiment: Post-emergence herbicidal activity against Digitaria sanguinalis (hairy crabgrass) assessed as growth inhibition at 25 g a.i/10 a applied 11 days after germination as foliar spray; format: functional, organism-based
Glycine max [5] = experiment: (§2) Pre-emergence phytotoxicity against Glycine max (soybean) assessed as mortality at 1.6 g a.i/10 a; format: organism-based; conditions: in vivo, other
Echinochloa crus-galli [6] = experiment: Pre-emergence herbicidal activity against Echinochloa crus-galli (barnyard grass) assessed as mortality at 6.3 g a.i/10 a; format: functional; conditions: for mortality at 63 g/ha: Echinochloa crus-galli, pre-emergence
Chenopodium album [7] = experiment: Post-emergence herbicidal activity against Chenopodium album assessed as growth inhibition at 25 g a.i/10 a applied 11 days after germination as foliar spray; format: functional, organism-based
Gossypium hirsutum [8] = experiment: Pre-emergence phytotoxicity against Gossypium hirsutum (cotton) assessed as mortality at 1.6 g a.i/10 a; format: organism-based; conditions: in vivo, other
Abutilon theophrasti [9] = experiment: Post-emergence herbicidal activity against Abutilon theophrasti (velvetleaf) assessed as mortality at 6.3 g a.i/10 a applied 11 days after germination as foliar spray; format: functional; conditions: 264 h
[10] = Pre-emergence phytotoxicity against Zea mays (maize) assessed as mortality at 1.6 g a.i/10 a; format: organism-based; conditions: in vivo, 1.6 g a.i/10 a
Abutilon theophrasti [11] = experiment: Pre-emergence herbicidal activity against Abutilon theophrasti (velvetleaf) assessed as mortality at 6.3 g a.i/10 a; format: functional
Gossypium hirsutum [12] = experiment: (§3) Pre-emergence phytotoxicity against Gossypium hirsutum (cotton) assessed as mortality at 6.3 g a.i/10 a; format: organism-based; conditions: in vivo, other
Persicaria nodosa [13] = experiment: Post-emergence herbicidal activity against Persicaria nodosa assessed as growth inhibition at 25 g a.i/10 a applied 11 days after germination as foliar spray; format: functional, organism-based
Ipomoea lacunosa [14] = experiment: Pre-emergence herbicidal activity against Ipomoea lacunosa assessed as mortality at 1.6 g a.i/10 a; format: functional; conditions: for mortality at 16 g/ha: Ipomoea lacunosa, pre-emergence
Gossypium hirsutum [15] = experiment: (§4) Post-emergence phytotoxicity against Gossypium hirsutum (cotton) assessed as mortality at 6.3 g a.i/10 a applied 11 days after germination as foliar spray; format: organism-based; conditions: in vivo, other, 264 h
[16] = (§5) Post-emergence phytotoxicity against Glycine max (soybean) assessed as mortality at 1.6 g a.i/10 a applied 11 days after germination as foliar spray; format: organism-based; conditions: in vivo, 1.6 g a.i/10 a
Amaranthus retroflexus [17] = experiment: Pre-emergence herbicidal activity against Amaranthus retroflexus assessed as growth inhibition at 25 g a.i/10 a; format: functional, organism-based
Chenopodium album [18] = experiment: Pre-emergence herbicidal activity against Chenopodium album assessed as growth inhibition at 25 g a.i/10 a; format: functional, organism-based
Cyperus iria [19] = experiment: Post-emergence herbicidal activity against Cyperus iria assessed as growth inhibition at 25 g a.i/10 a applied 11 days after germination as foliar spray; format: functional, organism-based
Abutilon theophrasti [20] = experiment: Post-emergence herbicidal activity against Abutilon theophrasti (velvetleaf) assessed as mortality at 1.6 g a.i/10 a applied 11 days after germination as foliar spray; format: functional; conditions: 264 h
Digitaria sanguinalis [21] = experiment: Pre-emergence herbicidal activity against Digitaria sanguinalis (hairy crabgrass) assessed as growth inhibition at 25 g a.i/10 a; format: functional, organism-based
Abutilon theophrasti [22] = experiment: Pre-emergence herbicidal activity against Abutilon theophrasti (velvetleaf) assessed as mortality at 1.6 g a.i/10 a; format: functional; conditions: for mortality at 16 g/ha: Abutilon theophrasti, pre-emergence
Xanthium strumarium [23] = experiment: Pre-emergence herbicidal activity against Xanthium strumarium (cocklebur) assessed as mortality at 1.6 g a.i/10 a; format: functional; conditions: for mortality at 16 g/ha: Xanthium strumarium, pre-emergence
[24] = (§6) Post-emergence phytotoxicity against Zea mays (maize) assessed as mortality at 1.6 g a.i/10 a applied 11 days after germination as foliar spray; format: organism-based; conditions: in vivo, 1.6 g a.i/10 a
Ipomoea lacunosa [25] = experiment: Post-emergence herbicidal activity against Ipomoea lacunosa assessed as mortality at 6.3 g a.i/10 a applied 11 days after germination as foliar spray; format: functional; conditions: 264 h
Ipomoea lacunosa [26] = experiment: Post-emergence herbicidal activity against Ipomoea lacunosa assessed as mortality at 1.6 g a.i/10 a applied 11 days after germination as foliar spray; format: functional; conditions: 264 h
Xanthium strumarium [27] = experiment: Post-emergence herbicidal activity against Xanthium strumarium (cocklebur) assessed as mortality at 6.3 g a.i/10 a applied 11 days after germination as foliar spray; format: functional; conditions: 264 h
Echinochloa crus-galli [28] = experiment: Pre-emergence herbicidal activity against Echinochloa crus-galli (barnyard grass) assessed as growth inhibition at 25 g a.i/10 a; format: functional, organism-based
Echinochloa crus-galli [29] = experiment: Post-emergence herbicidal activity against Echinochloa crus-galli (barnyard grass) assessed as growth inhibition at 25 g a.i/10 a applied 11 days after germination as foliar spray; format: functional, organism-based
Cyperus iria [30] = experiment: Pre-emergence herbicidal activity against Cyperus iria assessed as growth inhibition at 25 g a.i/10 a; format: functional, organism-based
Amaranthus retroflexus [31] = experiment: Post-emergence herbicidal activity against Amaranthus retroflexus assessed as growth inhibition at 25 g a.i/10 a applied 11 days after germination as foliar spray; format: functional, organism-based
Echinochloa crus-galli [32] = experiment: Post-emergence herbicidal activity against Echinochloa crus-galli (barnyard grass) assessed as mortality at 6.3 g a.i/10 a applied 11 days after germination as foliar spray; format: functional; conditions: 264 h
Glycine max [33] = experiment: as §1; format: organism-based; conditions: in vivo, other
Xanthium strumarium [34] = experiment: Post-emergence herbicidal activity against Xanthium strumarium (cocklebur) assessed as mortality at 1.6 g a.i/10 a applied 11 days after germination as foliar spray; format: functional; conditions: 264 h
Xanthium strumarium [35] = experiment: Pre-emergence herbicidal activity against Xanthium strumarium (cocklebur) assessed as mortality at 6.3 g a.i/10 a; format: functional
[36] = as §3; format: organism-based; conditions: in vivo, 6.3 g a.i/10 a
Echinochloa crus-galli [37] = experiment: Pre-emergence herbicidal activity against Echinochloa crus-galli (barnyard grass) assessed as mortality at 1.6 g a.i/10 a; format: functional
Zea mays [38] = experiment: Post-emergence phytotoxicity against Zea mays (maize) assessed as mortality at 6.3 g a.i/10 a applied 11 days after germination as foliar spray; format: organism-based; conditions: in vivo, other, 264 h
Glycine max [39] = experiment: as §5; format: organism-based; conditions: in vivo, other, 264 h
Zea mays [40] = experiment: as §6; format: organism-based; conditions: in vivo, other, 264 h
Zea mays [41] = experiment: Pre-emergence phytotoxicity against Zea mays (maize) assessed as mortality at 6.3 g a.i/10 a; format: organism-based; conditions: in vivo, other
Ipomoea lacunosa [42] = experiment: Pre-emergence herbicidal activity against Ipomoea lacunosa assessed as mortality at 6.3 g a.i/10 a; format: functional
[43] = as §2; format: organism-based; conditions: in vivo, 1.6 g a.i/10 a, read-out: Activity
[44] = as §4; format: organism-based; conditions: in vivo, 6.3 g a.i/10 a
Glycine max [45] = experiment: Post-emergence phytotoxicity against Glycine max (soybean) assessed as mortality at 6.3 g a.i/10 a applied 11 days after germination as foliar spray; format: organism-based; conditions: in vivo, other, 264 h
Echinochloa crus-galli [46] = experiment: Post-emergence herbicidal activity against Echinochloa crus-galli (barnyard grass) assessed as mortality at 1.6 g a.i/10 a applied 11 days after germination as foliar spray; format: functional; conditions: 264 h

SMILES: COc1cc(OC)nc(Oc2cccc(I)c2C(=O)O)n1
- growth inhibition (GI) (Persicaria nodosa [1]): Active
- mortality ([2]; read-out: mortality): > 90%
- Activity (Gossypium hirsutum [3]): Toxic
- growth inhibition (GI) (Digitaria sanguinalis [4]): Active
- Activity (Glycine max [5]): Toxic
- mortality at 63 g/ha (Echinochloa crus-galli [6]): > 90%
- growth inhibition (GI) (Chenopodium album [7]): Active
- Activity (Gossypium hirsutum [8]): Non-toxic
- mortality at 63 g/ha (Abutilon theophrasti [9]): > 90%
- mortality ([10]; read-out: mortality): > 90%
- mortality at 63 g/ha (Abutilon theophrasti [11]; Abutilon theophrasti, pre-emergence): > 90%
- Activity (Gossypium hirsutum [12]): Non-toxic
- growth inhibition (GI) (Persicaria nodosa [13]): Active
- mortality at 16 g/ha (Ipomoea lacunosa [14]): < 5%
- Activity (Gossypium hirsutum [15]): Toxic
- mortality at 264 h [16]: > 90%
- growth inhibition (GI) (Amaranthus retroflexus [17]): Active
- growth inhibition (GI) (Chenopodium album [18]): Active
- growth inhibition (GI) (Cyperus iria [19]): Active
- mortality at 16 g/ha (Abutilon theophrasti [20]): > 90%
- growth inhibition (GI) (Digitaria sanguinalis [21]): Active
- mortality at 16 g/ha (Abutilon theophrasti [22]): > 90%
- mortality at 16 g/ha (Xanthium strumarium [23]): < 5%
- mortality at 264 h [24]: > 90%
- mortality at 63 g/ha (Ipomoea lacunosa [25]): > 90%
- mortality at 16 g/ha (Ipomoea lacunosa [26]): > 90%
- mortality at 63 g/ha (Xanthium strumarium [27]): > 90%
- growth inhibition (GI) (Echinochloa crus-galli [28]): Active
- growth inhibition (GI) (Echinochloa crus-galli [29]): Active
- growth inhibition (GI) (Cyperus iria [30]): Active
- growth inhibition (GI) (Amaranthus retroflexus [31]): Active
- mortality at 63 g/ha (Echinochloa crus-galli [32]): > 90%

SMILES: COc1cc(OC)nc(Oc2cccc([N+](=O)[O-])c2C(=O)O)n1
- growth inhibition (GI) (Persicaria nodosa [1]): Active
- Activity (Glycine max [33]): Non-toxic
- Activity (Gossypium hirsutum [3]): Non-toxic
- mortality at 16 g/ha (Xanthium strumarium [34]): < 5%
- growth inhibition (GI) (Digitaria sanguinalis [4]): inactive
- Activity (Glycine max [5]): Non-toxic
- mortality at 63 g/ha (Echinochloa crus-galli [6]): < 5%
- growth inhibition (GI) (Chenopodium album [7]): Active
- mortality at 63 g/ha (Xanthium strumarium [35]; Xanthium strumarium, pre-emergence): < 5%
- mortality ([10]; read-out: mortality): < 5%
- mortality ([36]; read-out: mortality): < 5%
- growth inhibition (GI) (Persicaria nodosa [13]): Active
- mortality at 16 g/ha (Ipomoea lacunosa [14]): < 5%
- Activity (Gossypium hirsutum [15]): Non-toxic
- mortality at 16 g/ha (Echinochloa crus-galli [37]; Echinochloa crus-galli, pre-emergence): < 5%
- Activity (Zea mays [38]): Toxic
- Activity (Glycine max [39]): Toxic
- growth inhibition (GI) (Amaranthus retroflexus [17]): Active
- growth inhibition (GI) (Chenopodium album [18]): Active
- growth inhibition (GI) (Cyperus iria [19]): Active
- growth inhibition (GI) (Digitaria sanguinalis [21]): inactive
- mortality at 16 g/ha (Abutilon theophrasti [22]): < 5%
- mortality at 16 g/ha (Xanthium strumarium [23]): < 5%
- Activity (Zea mays [40]): Non-toxic
- mortality at 16 g/ha (Ipomoea lacunosa [26]): < 5%
- growth inhibition (GI) (Echinochloa crus-galli [28]): inactive
- growth inhibition (GI) (Echinochloa crus-galli [29]): Active
- Activity (Zea mays [41]): Non-toxic
- mortality at 63 g/ha (Ipomoea lacunosa [42]; Ipomoea lacunosa, pre-emergence): < 5%
- growth inhibition (GI) (Cyperus iria [30]): Active
- growth inhibition (GI) (Amaranthus retroflexus [31]): Active

SMILES: COc1cc(OC)nc(Sc2cccc(OC(C)C)c2C(=O)O)n1
- mortality ([2]; read-out: Activity): < 50%
- Activity (Gossypium hirsutum [3]): Non-toxic
- mortality [43]: < 50%
- Activity (Echinochloa crus-galli [6]): <50%
- Activity (Gossypium hirsutum [8]): < 50%
- Activity (Xanthium strumarium [35]): <50%
- mortality at 63 g/ha (Abutilon theophrasti [9]): > 90%
- mortality ([10]; read-out: Activity): < 50%
- Activity (Abutilon theophrasti [11]): <50%
- mortality ([36]; read-out: Activity): < 50%
- Activity (Ipomoea lacunosa [14]): <50%
- mortality at 264 h [44]: > 90%
- Activity (Echinochloa crus-galli [37]): <50%
- Activity (Glycine max [39]): Toxic
- mortality at 16 g/ha (Abutilon theophrasti [20]): > 90%
- Activity (Abutilon theophrasti [22]): <50%
- Activity (Xanthium strumarium [23]): <50%
- Activity (Zea mays [40]): Toxic
- mortality at 63 g/ha (Ipomoea lacunosa [25]): > 90%
- Activity (Glycine max [45]): Toxic
- Activity (Zea mays [41]): < 50%
- Activity (Ipomoea lacunosa [42]): <50%
- mortality at 16 g/ha (Echinochloa crus-galli [46]): < 5%
- mortality at 63 g/ha (Echinochloa crus-galli [32]): < 5%

— ChEMBL document CHEMBL3046894, “Synthesis and Herbicidal Activity of Pyrimidinyl Salicylic and Thiosalicylic Acids” (J Pestic Sci, 1996)
